From patent US20250163116A1, “NEW METHOD TO TREAT INFECTIOUS DISEASES” (INSERM (INSTITUT NATIONAL DE LA SANTÉ ET DE LA RECHERCHE …, priority 2022, published 2025)

Key:
[1] = test system: SCID mice grafted with human skin infected with Nm 2C4.3; test: Outcome of meningococcal infection in SCID mice grafted with human skin (survival, with or without antibiotics); format: in vivo; details: 200 mg kg-1 cefotaxime
Procedure: A-D, SCID mice grafted with human skin were infected intravenously with Nm 2C4.3 wild-type strain (5×10^6 bacteria); 2 h after bacterial challenge, mice received recombinant human ANGPTL4 (1 μg, intravenously), cefotaxime (200 mg kg-1, intraperitoneally) alone or in combination with ANGPTL4 or vehicle as a control. 18 h following bacterial challenge, ANGPTL4 (1 μg) and cefotaxime (200 mg kg-1) were re-administered. This experiment was performed twice with n=3 or 4 mice per group, using skin from two different donors. A, A schematic representation of the protocol used in vivo. B, Bacteraemia 4, 18, 48 and 72 h post-infection (mean±s.e.m.). C, Survival curve: * P=0.0275; two-sided log-rank Mantel-Cox survival analysis. D, Thrombosis within the skin grafts at 4 h post-infection was assessed by immunofluorescence analysis and quantified as described in FIG. 8 (error bars show mean±s.e.m.; 40 vessels per mouse were analysed; n=4 mice per group; *** P<0.001; two-tailed Student's t-test.
Six-week-old CB17/Icr-Prkdcscid female mice were obtained from Janvier Labs. Human skin tissues were obtained from adult patients undergoing plastic surgery in the Service de Chirurgie Plastique et Reconstructive of the Groupe Hospitalier Saint-Joseph. […] Experimental procedures were performed as previously described in accordance with the guidelines of the Institut National de la Santé et de la Recherche Médicale and conformed to the European ethical legislation (Directive 2010/63/EU). The experimental protocol was approved by the Animal Experimentation Ethics Committee of the Université Paris Descartes (consent forms CEEA34.O.J.L.039.12 and 2018012515596498). […] A skin flap was created and a full thickness human skin graft was placed onto the wound bed. The transplants were held in place with 6-0 non-absorbable monofilament suture materials, and the flap was then sutured above the transplant. Grafted mice were infected 4-6 weeks after human skin transplantation. N. meningitidis was grown overnight at 37° C. on GCB agar plates prepared without iron and supplemented with 15 μM deferoxamine (Desferal, Novartis). Bacterial colonies were harvested and cultured in RPMI media with 1% BSA medium and 0.06 μM deferoxamine with gentle agitation to reach the exponential phase of growth. Bacteria were then resuspended in physiological saline solution. Mice were infected intravenously with 200 μl (5×10^6 bacteria) of this bacterial suspension. A 10 mg dose of human holotransferrin (R&D Systems) was administered intraperitoneally just before infection. Mice were killed at 4 h after infection. Human skin grafts were carefully collected using a sterile cutter. The tissue was washed in PBS and fixed overnight at 4° C. in 4% paraformaldehyde in phosphate buffer. After washing in phosphate buffer, the specimens were embedded in OCT medium and then frozen at −80° C. Sections of the dermis (7 μm thick) were immobilized on Superfrost Plus microscope slides and subjected to immunofluorescence analysis. Sections were incubated with the primary antibodies for 1 h in PBS/3% BSA then DAPI was added to Alexa-conjugated secondary antibodies for 1 h. After additional washing, coverslips were mounted in glycergel (Dako) and were further analysed using a slide scanner (Lamina, Perkin Elmer). Analysis of the images was performed using ImageJ software (NIH). […]
We then analysed whether ANGPTL4 could provide a beneficial effect when administered with antibiotics.

[2] = test system: HDMECs infected with Nm 2C4.3; test: Integrity of HDMEC monolayers infected with N. meningitidis (VE-cadherin at intercellular junctions, immunofluorescence); format: cell-based, human; details: 1 μg/mL added 30 min after initiation of Nm infection, 2 h 30
Procedure: FIG. 1. Exogenous ANGPTL4 exerts protective effects on dermal microvascular endothelial cells infected by N. meningitidis. A. HDMECs were infected with Nm 2C4.3 for 30 min and treated with 1 μg/mL of recombinant human ANGPTL4 for 2 h 30. Cells were fixed and stained for cellular actin, VE-cadherin and DAPI and analyzed by fluorescent microscopy. Quantifications of VE-cadherin enrichment at intercellular junctions and of intercellular spaces area were performed on 30 fields with Image J software. Kruskal-Wallis test ** P<0.001; P<0.0001. B. HDMEC were either uninfected or infected with N. meningitidis 2C4.3 for 30 min and treated with 1 μg mL−1 of recombinant human ANGPTL4, its N-terminal portion (nANGPTL4) or its C-terminal portion (cANGPTL4) for 2 h 30. Caspase-3/7 reagent was added to detect apoptosis in real time over 9 h using the IncuCyte® Live-Cell Analysis System
FIG. 2: Vascular protection is conferred by the N-terminal part of ANGPTL4. A, Schematic representation of ANGPTL4 structure. ANGPTL4 contains a N-terminal portion (nANGPTL4, aa 26-164) linked to a C-terminal portion (cANGPTL4, aa 164-406) by a cleavable linker. nANGPTL4 contains a highly conserved lipoprotein lipase (LPL) binding domain (aa 44-55), two cysteines on position 76 and 80 involved in protein oligomerization and a coiled-coil domain (aa 100-143). The C-terminal portion encodes a fibrinogen-like domain. B, HDMECs were infected with Nm 2C4.3 for 30 min and treated with 1 μg/mL of recombinant human ANGPTL4, nANGPTL4 or cANGPTL4 for 2 h 30. Cells were fixed and stained for cellular actin, VE-cadherin and DAPI and analyzed by fluorescent microscopy. B. Quantifications of VE-cadherin enrichment at intercellular junctions and of intercellular spaces area were performed on 30 fields with Image J software. Kruskal-Wallis test ** P<0.001, *** P<0.0001 of four independent experiments performed in triplicate.
FIG. 3: Vascular protection is conferred by a novel binding motif (aa 66-80) present in the N-terminal part of ANGPTL4. A, the indicated peptides were derived from nANGPTL4. B, HDMECs were infected with Nm 2C4.3 for 30 min and treated with 1 μg/mL of each peptides. Quantifications of VE-cadherin enrichment at intercellular junctions was performed on 30 fields with Image J software.
FIG. 4: Vascular protection is conferred by interaction of nANGPTL4 with Syndecan-4. A, HDMECs were infected with Nm 2C4.3 for 30 min and treated with 1 μg/mL of recombinant human ANGPTL4, nANGPTL4 or cANGPTL4 in the absence or in the presence of anti-SDC4 antibody for 2 h 30. Cells were fixed and stained for cellular actin, VE-cadherin and DAPI and analysed by fluorescent microscopy. Quantifications of VE-cadherin enrichment at intercellular junctions and of intercellular spaces area were performed on 30 fields with Image J software. Kruskal-Wallis test ** P<0.001, **** P<0.00001, ns1 P=0.2172; ns2 P>0.999 of four independent experiments performed in triplicate. B, HDMECs were transfected with small interfering RNA (siRNA) against SDC4 or non-targeting siRNA controls for 48 h, infected with Nm 2C4.3 for 30 min and treated with 1 μg/mL of recombinant human ANGPTL4, for 2 h 30. Quantifications of VE-cadherin enrichment at intercellular junctions and of intercellular spaces area were performed on 30 fields with Image J software. Kruskal-Wallis test ** P<0.001, *** P<0.0001, of two independent experiments performed in triplicate.
The day of infection, a suspension of the bacteria from an overnight culture on GCB agar plate was adjusted to OD600=0.05 and incubated for 2 h at 37° C. in a pre-warmed cell culture medium. Cells were infected with bacteria at a multiplicity of infection (MOI) of 100 bacteria per cell (OD=0.1) for 30 minutes, washed twice to remove non-adherent bacteria and infection was allowed to proceed for various periods of time. Cells were then washed and fixed in 4% paraformaldehyde for immunofluorescence analysis. […]

[3] = test system: Balb/c mice challenged with LPS; test: LPS-induced endotoxemia (sepsis) in mice; format: in vivo; details: LPS 5 mg kg-1 i.p.; 2 μg/mouse i.v.
Procedure: FIG. 9: ANGPTL4 protects against LPS-induced endotoxemia by preventing vascular dysfunction and organ failure. A-B, Balb/c mice received LPS (5 mg kg-1, i.p.); 30 min after LPS challenge, mice received recombinant human ANGPTL4 (2 μg, intravenously), or vehicle as a control. A, A schematic representation of the protocol used. B, Survival curve (n=16 mice per group): **** P<0.0001; two-sided log-rank Mantel-Cox survival analysis. C,D, Balb/c mice received LPS (5 mg kg-1, i.p.); 30 min after LPS challenge, mice received nANGPTL4 (2 μg, intravenously), or vehicle as a control. C, A schematic representation of the protocol used. D, Survival curve (n=6 mice per group): ** P=0.0033; two-sided log-rank Mantel-Cox survival analysis. E, F, Balb/c mice received LPS (5 mg kg-1, i.p.); 30 min after LPS challenge, mice received Peptide 1 (2 μg, intravenously), or vehicle as a control. E, A schematic representation of the protocol used. F, Survival curve (n=6 mice per group): * P=0.0163; two-sided log-rank Mantel-Cox survival analysis. G, Balb/c mice received LPS (5 mg kg-1. i.p.): 30 min after LPS challenge, mice received recombinant human peptide P9 (2 μg. intravenously). or vehicle as a control. Survival curves (n=6 mice per group). *** P<0.001: two-sided log-rank Mantel-Cox survival analysis. H. Balb/c mice received LPS (4 mg kg-1. i.p.) together with anti-ANGPTL4 blocking antibody (10 μg kg-1. i.v) or vehicle as a control. 18 h after LPS challenge. mice were perfused with Evans blue for 1 h. were killed and brain were extracted. Quantification analysis of Evans blue extravasation (n=4 mice per group). Bars and error bars show the mean±s.e.m., respectively, from two independent experiments: *** P<0.001: NS, not significant (P>0.05) one-way ANOVA Tukey's multiple comparison test.
Female BALB/c mice, obtained from Janvier Labs, 9-10 weeks of age, were administered LPS at 5 mg/kg intraperitoneally and survival was monitored for 72 h (n=12 per group). BALB/c mice were randomly divided into 2 groups: LPS and LPS+Angptl4. Angptl4 (2 μg/mice) or vehicle (physiological saline solution) was administered intravenously 30 min after LPS challenge. In some experiments, blood serum, kidney and lung were collected at 18 h post-LPS challenge. Kidney and lungs were fixed in 4% PFA, embedded in paraffin, and 5-μm sections were cut from each block and stained with H&E. The stained sections were observed and acquired using a slide scanner (Lamina, Perkin Elmer). Analysis of the images was performed using ImageJ software (NIH).
Since severe endothelial dysfunction, leading to dysregulation of hemostasis and vascular dysfunction, is central to the progression to organ failure during sepsis, we analysed whether ANGPTL4 could play a protective role in sepsis, using a lipopolysaccharide (LPS)-induced endotoxemia (FIG. 9A). After LPS-challenge (5 mg kg-1, i.p.), all mice died within two days (FIG. 9B).

Row | Molecule | bactericidal effect (bacteraemia) [1] | mice survival [1] | thrombosis at 4 h post-infection [1] | protective effect on monolayer integrity (adherens junctions, cell detachment) of infected HDMECs [2] | sepsis-associated mortality / survival rate [3]
1 | CO/N=C(\C(=O)N[C@@H]1C(=O)N2C(C(=O)O)=C(COC(C)=O)CS[C@H]12)c1csc(N)n1 [cefotaxime] | strong bactericidal effect | associated with mice survival | did not prevent the triggering of thrombosis |  | 
2 | LSALERRLSACGSAC (Peptide P9) |  |  |  | completely inhibited infection-induced damages | reduced sepsis-associated mortality rate as efficiently as the full-length protein
3 | SALERRLSACGS (Peptide P10) |  |  |  | no effect | did not significantly increased the survival rate
4 | WDEMNVLAHGLLQLGQGLREHAERTRSQLSALERRLSACGSACQGT (Peptide P1) |  |  |  | sufficient to prevent loss of adherens junctions and cell detachment induced by infection as efficiently as the full-length protein | reduced sepsis-associated mortality rate as efficiently as the full-length protein
